This passage reports IC50 results from patent US20140350081A1, “INSECT G-COUPLED RECEPTORS USEFUL AS TARGETS FOR INSECTICIDES AND COMPOUNDS AND REAGENTS IDENTIFIED USING THE SAME” (priority 2011, published 2014).

Counter-ions that a name gives are not always drawn. Like-named read-outs stand apart in the source and are kept apart here.

The target in the experiment is AaDOP2 (Aedes aegypti, UniProt H6D5H2). Nature of the experiment: HTRF cAMP accumulation concentration response assay (Cisbio Dynamic 2). Type of experiment: cell-based. (In TR-FRET formats the signal depends on donor and acceptor labels being close together.)
AaDOP2, sequence (H6D5H2 entry or part of it): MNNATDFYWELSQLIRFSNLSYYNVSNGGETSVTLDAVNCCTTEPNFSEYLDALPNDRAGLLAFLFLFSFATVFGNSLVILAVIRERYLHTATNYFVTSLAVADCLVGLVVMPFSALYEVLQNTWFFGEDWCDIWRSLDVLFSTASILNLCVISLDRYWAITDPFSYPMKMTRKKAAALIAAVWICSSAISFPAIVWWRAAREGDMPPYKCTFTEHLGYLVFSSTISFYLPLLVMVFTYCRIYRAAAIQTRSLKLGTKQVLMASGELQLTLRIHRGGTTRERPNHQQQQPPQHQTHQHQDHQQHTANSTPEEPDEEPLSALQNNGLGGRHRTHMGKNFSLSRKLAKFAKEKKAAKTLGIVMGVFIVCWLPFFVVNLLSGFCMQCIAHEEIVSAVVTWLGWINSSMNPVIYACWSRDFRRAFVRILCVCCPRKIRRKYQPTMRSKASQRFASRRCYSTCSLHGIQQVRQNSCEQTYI
Setting [1] is: in vitro Concentration Response Curve assay, n = 2, relative to control antagonist Amitriptyline, read-out: Avg IC50.
Setting [2] is: AaDOP2 expressing cells in the presence of dopamine, No Inhibition = <10% inhibition at 3 μM test compound, read-out: IC50 ± S.E.M. (nM), HTRF cAMP assay.

Usually IC50 stands for the concentration needed to halve the response being measured.

The molecule `COc1ccccc1OCCNCC(O)COc1cccc2[nH]c3ccccc3c12` (centres unmarked) [Carvedilol, 1-(9H-Carbazol-4-yloxy)-3-[[2-(2-methoxyphenoxy)ethyl]amino]-2-propanol] had a half-inhibitory concentration (IC50) (Avg IC50 (μM), in vitro Concentration Response Curve assay, n = 2, relative to control antagonist Amitriptyline) of 8.5 µM. Turning to `CCC(=O)Nc1ccc(Nc2nc(C)cc(Nc3ccccc3)n2)cc1` [Compound G869-0096, N-(4-((4-methyl-6-(phenylamino)pyrimidin-2-yl)amino)phenyl)propionamide], the IC50 under setting [1] stood at 4.74 µM.

On to `CCCC(=O)Nc1ccc(Nc2nc(C)cc(Nc3ccccc3)n2)cc1` [Compound G869-0097, N-(4-((4-methyl-6-(phenylamino)pyrimidin-2-yl)amino)phenyl)butyramide], for which the IC50 under setting [1] was 6.05 µM.

With `Cc1cc(Nc2ccccc2)nc(Nc2ccc(NC(=O)C(C)C)cc2)n1` [Compound G869-0098, N-(4-((4-methyl-6-(phenylamino)pyrimidin-2-yl)amino)phenyl)isobutyramide], under setting [1], the IC50 came to 3.1 µM. Take `CCCCC(=O)Nc1ccc(Nc2nc(C)cc(Nc3ccccc3)n2)cc1` [Compound G869-0099, N-(4-((4-methyl-6-(phenylamino)pyrimidin-2-yl)amino)phenyl)pentanamide]: the half-maximal inhibitory concentration (IC50) under setting [1] turned out to be 5.95 µM.

`Cc1cc(Nc2ccccc2)nc(Nc2ccc(NC(=O)C(C)(C)C)cc2)n1` [Compound G869-0100, N-(4-((4-methyl-6-(phenylamino)pyrimidin-2-yl)amino)phenyl)pivalamide]: under setting [1], the IC50 came to 2.08 µM. As for `Cc1cc(Nc2ccccc2)nc(Nc2ccc(NC(=O)CC(C)C)cc2)n1` [Compound G869-0101, 3-methyl-N-(4-((4-methyl-6-(phenylamino)pyrimidin-2-yl)amino)phenyl)butanamide], the IC50 under setting [1] was 5.5 µM. Regarding `Cc1cc(Nc2ccccc2)nc(Nc2ccc(NC(=O)C3CCCCC3)cc2)n1` [Compound G869-0105, N-(4-((4-methyl-6-(phenylamino)pyrimidin-2-yl)amino)phenyl)cyclohexanecarboxamide], the IC50 under setting [1] was determined as 11.6 µM. Consider `COc1cc(OC)cc(C(=O)Nc2ccc(Nc3nc(C)cc(Nc4ccccc4)n3)cc2)c1` [Compound G869-0121, 3,5-dimethoxy-N-(4-((4-methyl-6-(phenylamino)pyrimidin-2-yl)amino)phenyl)benzamide], for which the IC50 under setting [1] stood at 2.22 µM. For the molecule `Cc1cc(Nc2ccccc2)nc(Nc2ccc(NC(=O)c3ccccc3Cl)cc2)n1` [Compound G869-0127, 2-chloro-N-(4-((4-methyl-6-(phenylamino)pyrimidin-2-yl)amino)phenyl)benzamide], under setting [1], the IC50 came out at 7.51 µM. On the same count and under the same terms, for `COc1ccc(Nc2cc(C)nc(Nc3ccc(NC(C)=O)cc3)n2)cc1` [Compound G869-0268, N-(4-((4-((4-methoxyphenyl)amino)-6-methylpyrimidin-2-yl)amino)phenyl)acetamide] the value was 13.2 µM; for `COc1ccc(Nc2cc(C)nc(Nc3ccc(NC(=O)C(C)(C)C)cc3)n2)cc1` [Compound G869-0273, N-(4-((4-((4-methoxyphenyl)amino)-6-methylpyrimidin-2-yl)amino)phenyl)pivalamide], 5.09 µM. `COc1ccc(Nc2cc(C)nc(Nc3ccc(NC(=O)CC(C)(C)C)cc3)n2)cc1` [Compound G869-0275, N-(4-((4-((4-methoxyphenyl)amino)-6-methylpyrimidin-2-yl)amino)phenyl)-3,3-dimethylbutanamide]: the IC50 under setting [1] amounted to 9.02 µM. Still for that read-out and setting: for `COc1ccc(Nc2cc(C)nc(Nc3ccc(NC(=O)c4c(F)cccc4Cl)cc3)n2)cc1` [Compound G869-0304, 2-chloro-6-fluoro-N-(4-((4-((4-methoxyphenyl)amino)-6-methylpyrimidin-2-yl)amino)phenyl)benzamide] the value was 7.17 µM. As for `Cc1cc(N2CCCC2)nc(Nc2ccc(NC(=O)c3ccccc3Br)cc2)n1` [Compound G869-0472, 2-bromo-N-(4-((4-methyl-6-(pyrrolidin-1-yl)pyrimidin-2-yl)amino)phenyl)benzamide], the IC50 under setting [1] stood at 19.4 µM. As for `Cc1cc(N2CCCC2)nc(Nc2ccc(NC(=O)Cc3ccccc3)cc2)n1` [Compound G869-0499, N-(4-((4-methyl-6-(pyrrolidin-1-yl)pyrimidin-2-yl)amino)phenyl)-2-phenylacetamide], under setting [1], the IC50 amounted to 9.23 µM. On the same count and under the same terms, next, `Cc1ccc(Nc2nc(N3CCN(C)CC3)nc3c2cnn3-c2ccccc2)cc1` [Compound G932-0029, 6-(4-methylpiperazin-1-yl)-1-phenyl-N-(p-tolyl)-1H-pyrazolo[3,4-d]pyrimidin-4-amine]: 4.55 µM.

In the case of `Cc1ccccc1Nc1nc(N2CCN(C)CC2)nc2c1cnn2-c1ccccc1` [Compound G932-0129, 6-(4-methylpiperazin-1-yl)-1-phenyl-N-(o-tolyl)-1H-pyrazolo[3,4-d]pyrimidin-4-amine], the concentration for half-maximal inhibition (IC50) under setting [1] was found to be 3.49 µM. As to `OCCN1CCN(c2nc(Nc3ccccc3)c3cnn(-c4ccccc4)c3n2)CC1` [Compound G932-0232, 2-(4-(1-phenyl-4-(phenylamino)-1H-pyrazolo[3,4-d]pyrimidin-6-yl)piperazin-1-yl)ethanol], the IC50 under setting [1] came to 1.17 µM. Same read-out and setting: next, `CCN1CCN(c2nc(Nc3ccccc3)c3cnn(-c4ccccc4)c3n2)CC1` [Compound G932-0245, 6-(4-ethylpiperazin-1-yl)-N,1-diphenyl-1H-pyrazolo[3,4-d]pyrimidin-4-amine]: 0.557 µM; `CN1CCN(c2nc(Nc3ccc(F)cc3)c3cnn(-c4ccccc4)c3n2)CC1` [Compound G932-0329, N-(4-fluorophenyl)-6-(4-methylpiperazin-1-yl)-1-phenyl-1H-pyrazolo[3,4-d]pyrimidin-4-amine]: 2.5 µM. In the case of `CCN1CCN(c2nc(Nc3ccc(F)cc3)c3cnn(-c4ccccc4)c3n2)CC1` [Compound G932-0345, 6-(4-ethylpiperazin-1-yl)-N-(4-fluorophenyl)-1-phenyl-1H-pyrazolo[3,4-d]pyrimidin-4-amin], the half-inhibitory concentration (IC50) under setting [1] was 4.54 µM. With `CCN(CC)CCNc1nc(Nc2ccc(Cl)cc2)c2cnn(-c3ccccc3)c2n1` [Compound G932-0372, N4-(4-chlorophenyl)-N6-(2-(diethylamino)ethyl)-1-phenyl-1H-pyrazolo[3,4-d]pyrimidine-4,6-diamine], the IC50 under setting [1] is 5.13 µM. `CN1CCN(c2nc(Nc3ccc(Cl)cc3)c3cnn(-c4ccccc4)c3n2)CC1` [Compound G932-0379, N-(4-chlorophenyl)-6-(4-methylpiperazin-1-yl)-1-phenyl-1H-pyrazolo[3,4-d]pyrimidin-4-amine]: under setting [1], the IC50 was determined as 3.98 µM.

Take `COc1ccc(Nc2nc(N3CCN(C)CC3)nc3c2cnn3-c2ccccc2)cc1` [Compound G932-0529, N-(4-methoxyphenyl)-6-(4-methylpiperazin-1-yl)-1-phenyl-1H-pyrazolo[3,4-d]pyrimidin-4-amine]: the half-inhibitory concentration (IC50) under setting [1] was 6.87 µM.

For `CN1CCN(c2nc(Nc3cccc(F)c3)c3cnn(-c4ccccc4)c3n2)CC1` [Compound G932-0671, N-(3-fluorophenyl)-6-(4-methylpiperazin-1-yl)-1-phenyl-1H-pyrazolo[3,4-d]pyrimidin-4-amine], under setting [1], the concentration for half-maximal inhibition (IC50) came out at 0.585 µM. Same read-out and setting: for `OCCN1CCN(c2nc(Nc3cccc(F)c3)c3cnn(-c4ccccc4)c3n2)CC1` [Compound G932-0674, 2-(4-(4-((3-fluorophenyl)amino)-1-phenyl-1H-pyrazolo[3,4-d]pyrimidin-6-yl)piperazin-1-yl)ethanol] the value was 1.48 µM; for `CCN1CCN(c2nc(Nc3cccc(F)c3)c3cnn(-c4ccccc4)c3n2)CC1` [Compound G932-0687, 6-(4-ethylpiperazin-1-yl)-N-(3-fluorophenyl)-1-phenyl-1H-pyrazolo[3,4-d]pyrimidin-4-amine], 0.769 µM; for `CN1CCN(c2nc(Nc3ccc4c(c3)OCO4)c3cnn(-c4ccccc4)c3n2)CC1` [Compound G932-0818, N-(benzo[d][1,3]dioxol-5-yl)-6-(4-methylpiperazin-1-yl)-1-phenyl-1H-pyrazolo[3,4-d]pyrimidin-4-amine], 1.65 µM. `Cc1nc2sccn2c(=O)c1CCN1CCC(=C(c2ccccc2)c2ccc(F)cc2)CC1` [Compound R59-022]: the IC50 under setting [2] was found to be 0.053 ± 0.013 µM. On to `O=C(NCC1CCCCN1)c1cc(OCC(F)(F)F)ccc1OCC(F)(F)F` (centres unmarked) [Flecainide Acetate, N-(2-Piperidylmethyl)-2,5-bis-(2,2,2-trifluoroethoxy)benzamide acetate salt], for which the IC50 under setting [1] came out at 0.318 µM.

`CCOC(=O)N1CCC(=C2c3ccc(Cl)cc3CCc3cccnc32)CC1` [Loratidine]: the IC50 under setting [2] stood at 18 µM. `CCc1nn(CCCN2CCN(c3cccc(Cl)c3)CC2)c(=O)n1CCOc1ccccc1` [Nefazodone HCl, 2-[3-[4-(3-chlorophenyl)-1-piperazinyl]propyl]-5-ethyl-2,4-dihydro-4-(2-phenoxyethyl)-3H-1,2,4-triazol-3-one hydrochloride]: the midpoint of inhibition, the IC50, lay at 4.88 µM.

Regarding `CCCN1C[C@H](CSC)C[C@@H]2c3cccc4[nH]cc(c34)C[C@H]21` [Pergolide Mesylate, 8β-[(Methylthio)methyl]-6-propylergoline methanesulfonate salt], the IC50 under setting [1] was 0.704 µM. In the case of `O=C1[C@H]2CCCC[C@H]2C(=O)N1CCCCN1CCN(c2nsc3ccccc23)CC1` [Peropirone Hcl, (3aR,7aS)-2-{4-[4-(1,2-benzisothiazol-3-yl)piperazin-1-yl]butyl}hexahydro-1H-isoindole-1,3(2H)-dione], the IC50 under setting [1] was determined as 0.186 µM. Turning to `Cc1ccc(N(CC2=NCCN2)c2cccc(O)c2)cc1` [Phentolamine HCl, 2-[N-(3-Hydroxyphenyl)-p-toluidinomethyl]-2-imidazolidine hydrochloride], the IC50 under setting [1] was found to be 9.03 µM.

Take `CCOC(=O)c1c(C)n(-c2ccccc2)c2cc(Br)c(OC)cc12` [ST002262, ethyl 6-bromo-5-methoxy-2-methyl-1-phenylindole-3-carboxylate]: the IC50 under setting [1] was determined as 4.86 µM.

As for `CC(C)(O)C#Cc1ccc2c3c(cccc13)C(=O)OC2=O` [ST010134, 6-(3-hydroxy-3-methyl-but-1-ynyl)-benzo(de)isochromene-1,3-dione], the IC50 under setting [1] was 0.952 µM.
